These results are taken from PubChem BioAssay (NCI).

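Values below derive from 48-hour exposures of cells grown in 96-well plates, with endpoints linearly interpolated between the two concentrations bracketing the appropriate inhibition level. Definition used: TGI = concentration required for complete inhibition of growth.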

What all share (assay): NCI anticancer screen, dose series, 48 h
Test [1] relates to MDA-MB-231 breast.
In test [2] the test system is MOLT-4 leukemia.
Test [3] relates to MALME-3M melanoma.
For test [4], the system named is SK-MEL-5 melanoma.
The subject of test [5] is OVCAR-4 ovarian.
Test [6] deals with HCT-116 colon.
In test [7] the test system is SF-268 CNS.
Test [8] relates to CCRF-CEM leukemia.
Test [9] concerns OVCAR-3 ovarian.
Test [10] relates to SNB-19 CNS.
Test [11] concerns SW-620 colon.
For test [12], the system named is MDA-MB-435.
The subject of test [13] is DU-145 prostate.
The subject of test [14] is NCI-H522 lung.
Test [15] relates to MCF7 breast.
Test [16] relates to RXF 393 renal.
For test [17], the system named is OVCAR-5 ovarian.
Test [18] concerns RPMI-8226 leukemia.
The subject of test [19] is SR leukemia.

Consider `O=c1oc2ccccc2c(O)c1C(c1ccc([N+](=O)[O-])cc1)c1c(O)c2ccccc2oc1=O`, for which the TGI in test [1], in test [2], in [3], in test [4], in [5] and in test [6] was above 100 µM throughout. Further, the TGI in test [7], in [8], in test [9], in test [10], in test [11] and in test [12] was above 100 µM each time. The TGI in test [13] and in test [14] was above 100 µM throughout.

For the compound `COc1cccc2c1[C@H](OC)[C@]13O[C@@]1(C2=O)[C@H](O)[C@H](C)[C@@](O)(C(=O)[C@@H]1O[C@H]1C)[C@@H]3O`, the TGI in [1] was 0.977 µM; in [2], above 47.6 µM; in test [3], 0.523 µM; in test [4] it was 0.386 µM; in [5], 0.555 µM; in [15] it was 4.86 µM. Further, the TGI came out at 1.22 µM in [7]; 0.555 µM in test [8]; 1.1 µM in [16]; 2.05 µM in test [17]; 1.96 µM in test [9]; 0.518 µM in test [12]. In addition, the TGI stood at 0.411 µM in test [18] and 0.403 µM in test [14].

With `CN(C)CCCNC(=O)c1cc(NC(=O)CCCn2c3ccccc3c3ccccc32)cn1C`, the TGI was above 100 µM in test [1]; above 100 µM in test [2]; 61.7 µM in test [3]; above 100 µM in test [4]; above 100 µM in test [5]; above 100 µM in test [6]. The TGI in test [15], in test [7], in test [8], in test [16], in test [17] and in [9] was above 100 µM each time. Besides, the TGI in test [10], in test [11], in [12], in test [13] and in test [18] was above 100 µM throughout.

For `COC(=O)c1ccccc1C1CN=NC12Cc1c(C)c3c(c(C)c1C2=O)CCC3` (stereo unspecified), the TGI in [1], in test [2], in test [3], in [4], in [5] and in [6] was above 100 µM in each case. Moreover, the TGI in test [15], in test [7], in [8], in [16], in test [17] and in test [9] was above 100 µM throughout. Also, the TGI in [10], in test [11], in [12], in test [13] and in test [14] was above 100 µM throughout.

For the compound `COc1cccc(NC(=O)c2c(SC)n[nH]c2N)c1`, the TGI in [1], in [2], in [3], in test [4], in test [5] and in test [6] was above 100 µM in each case. The TGI in test [15], in test [7], in test [8], in test [16], in [17] and in test [10] was above 100 µM throughout. Moreover, the TGI in test [11], in test [12], in test [18] and in test [14] was above 100 µM in each case.

Regarding `Cc1ccccc1N=Nc1ccc(N=Nc2c(O)ccc3cc(S(=O)(=O)O)cc(S(=O)(=O)O)c23)c(C)c1`, the TGI in [19], in test [1], in test [2], in test [3], in [4] and in [5] was above 100 µM each time. For the same compound, the TGI in test [6], in test [15], in test [7], in test [8], in [16] and in [17] was above 100 µM in each case. The TGI in test [9], in [10], in test [11], in [12], in test [18] and in [14] was above 100 µM each time.

Regarding `Oc1ccc2ccccc2c1N=Nc1ccc(N=Nc2ccccc2)cc1`, the TGI is 88.2 µM in test [19]; above 100 µM in test [1]; above 100 µM in test [2]; above 100 µM in test [3]; above 100 µM in test [4]; above 100 µM in [5]. For the same compound, the TGI in test [6], in test [7], in test [8], in [16], in test [17] and in test [9] was above 100 µM in each case. In addition, the TGI in [10], in [11], in [12], in test [13], in test [18] and in test [14] was above 100 µM throughout.

Consider `COc1cccc(N2CCc3c(C)c(C#N)c4nc5ccccc5n4c32)c1`, for which the TGI in test [1], in test [3], in [4], in [5], in test [6] and in [15] was above 100 µM throughout. Further, the TGI in test [7], in [8], in test [16], in [17], in test [9] and in test [10] was above 100 µM throughout. The TGI in test [11], in test [12], in test [13] and in test [14] was above 100 µM in each case.

For `S=c1scc(-c2ccc(Cl)cc2)n1OC1CCCC1`, the TGI is above 100 µM in test [1]; 67.7 µM in [2]; above 100 µM in [3]; 24.4 µM in test [4]; above 100 µM in test [5]; above 100 µM in test [6]. Besides, the TGI in [15] was 81.6 µM; in test [7], above 100 µM; in [16] it was above 100 µM; in test [17] it was above 100 µM; in [9], 74.9 µM; in [10], above 100 µM. For the same compound, the TGI in [11] is above 100 µM; in test [12], 79.3 µM; in test [13], above 100 µM; in [14], 54.2 µM.
